Several values for one entry are separate records, joined by “and”; a condition that tells them apart may be missing. Equal values may be shown once.
Experiments:
cultured lymphocytes [1] = experiment: MTT survival assay of PHA-activated lymphocyte cultures, treated versus control; assay type: cell-based, human
Description: In the second set of experiments (53 subjects) after an initial 48 hours incubation (as above) four separate cultures were set up. Control cultures were left without any treatment, one set of cultures was treated with 100 ng/ml rapamycin, the third set was treated with 1 μM doxorubicin while the fourth set was treated with 120 μM H2O2. Doxorubicin induces DNA damage, leading to arrest at G2/M, rather than G1/S. H2O2 treatment produces oxidative stress, leading to a reversible and temporary cell cycle arrest at G1/S.
After 20 hours of incubation a 4 hour long MTT survival assay (Chemicon International Ltd) was set up. Results were read using a microplate reader (570 filter; 630 reference filter). The ratio between cell numbers in treated cultures versus controls was expressed as percent.

cultured lymphocytes [2] = experiment: Relative lengthening of the G1 phase (BrdU incorporation, FACS) in PHA-activated lymphocyte cultures treated with rapamycin; assay type: cell-based, human; details: 100 ng/ml rapamycin; for dG1: relative lengthening of the G1 phase of the cell cycle under Rapamycin effect: 24 h; for Mean (dG1): group mean
Description: A first set of experiments was carried out on 49 subjects (Table 1A), whilst a second set of experiments was carried out on 55 subjects (Table 1B). In the first set of experiments (49 subjects) two parallel lymphocyte cultures were set up from every individual in RPMI medium supplemented with 10% FCS at a concentration of 1×10^6 cells per 1 ml of culture media. Phytohaemaglutinin (PHA) was added to the cultures at a final concentration of 22 μg/ml to activate the lymphocytes. Cultures were incubated for 48 hours at 37° C. in a humidified atmosphere containing 5% CO2. After 48 hours incubation one culture was treated with 100 ng/ml rapamycin, while the other untreated culture was kept as a control. After a further 23 hours incubation BrdU was added in a concentration of 10 μg/ml to all cultures. After another hour cultures were ‘collected’ and fixed in 70% ice-cold ethanol. BrdU incorporation was assessed using immunohistochemistry followed by FACS analysis. The proportion of cells in various phases of the cell cycle was determined and data transformation performed to obtain the relative lengthening of the G1 phase (FIG. 1).
The calculations (relative lengthening of the G1 phase of the cell cycle in treated cultures relative to control cultures) were based on the assumptions that cells were in the exponential phase of proliferation and that the growth fraction in the cultures (ratio of dividing cells versus quiescent cells) was 1.0 (5). It was also assumed that rapamycin only altered the length of the G1 phase (19). Based on these assumptions the relative lengthening of the G1 phase was calculated using the formula: RL=100f-100 (expressed in percent). The ratio of the G1 time in treated versus control cultures: f=TG1tr/TG1c=[1n2−1n(2−G1tr)][1n(2−G1c)]/[1n(2−G1tr)][1n2−1n(2−G1c)] (5)

COc1cccc2c1C(=O)c1c(O)c3c(c(O)c1C2=O)C[C@@](O)(C(=O)CO)C[C@@H]3O[C@H]1C[C@H](N)[C@H](O)[C@H](C)O1 [Doxorubicin, doxorubicin]
Cell numbers after treatment (treated versus control cultures) (cultured lymphocytes [1]; 1 μM doxorubicin, 24 h, comparison between patient groups): did not result in significant differences between patient groups

OO [H2O2]
Cell numbers after treatment (treated versus control cultures) (cultured lymphocytes [1]; 120 μM H2O2, 24 h, AD, preAD and possAD patients versus control subjects): significantly higher cell numbers than control subjects

CO[C@H]1C[C@@H]2CC[C@@H](C)[C@@](O)(O2)C(=O)C(=O)N2CCCC[C@H]2C(=O)O[C@H]([C@H](C)C[C@@H]2CC[C@@H](O)[C@H](OC)C2)CC(=O)[C@H](C)/C=C(\C)[C@@H](O)[C@@H](OC)C(=O)[C@H](C)C[C@H](C)/C=C/C=C/C=C/1C [rapamycin]
dG1: relative lengthening of the G1 phase of the cell cycle under Rapamycin effect (cultured lymphocytes [2]; lymphocytes of individual patients, diagnosis AD (probable AD, NINCDS)): 44.03% and 97.07% and 82.67% and 62.12% and 73.01% and 47.91% and 53.63% and 0% and 27% | dG1: relative lengthening of the G1 phase of the cell cycle under Rapamycin effect (cultured lymphocytes [2]; lymphocytes of individual patients, diagnosis ADM): 64.28% and 39.2% and 95.23% and 46.31% and 59.49% and 51.81% and 51.62% | dG1: relative lengthening of the G1 phase of the cell cycle under Rapamycin effect (cultured lymphocytes [2]; lymphocytes of individual patients, diagnosis DNOS): 31.64% and 69.07% and 97.27% | dG1: relative lengthening of the G1 phase of the cell cycle under Rapamycin effect (cultured lymphocytes [2]; lymphocytes of individual patients, diagnosis possAD): 56.77% and 60.1% and 98.1% | dG1: relative lengthening of the G1 phase of the cell cycle under Rapamycin effect (cultured lymphocytes [2]; lymphocytes of individual subjects, diagnosis Control): 51.69% and 64.1% and 40.07% and 114.1% and 119.8% and 50.04% and 177.8% and 62.81% and 54.56% and 162.7% and 97.33% and 46.02% and 110.8% and 140.6% | dG1: relative lengthening of the G1 phase of the cell cycle under Rapamycin effect (cultured lymphocytes [2]; lymphocytes of individual subjects, diagnosis preAD): 0% (3×) and 26.1% and 36.18% and 54.46% and 39.2% and 72.58% and 44.49% and 31.37% and 25.47% and 35.02% and 42.1% | Mean (dG1) (cultured lymphocytes [2]; AD, n=9): 54.1602% | Mean (dG1) (cultured lymphocytes [2]; ADM, n=7): 58.2765% | Mean (dG1) (cultured lymphocytes [2]; CONTROL, n=14): 92.3135% | Mean (dG1) (cultured lymphocytes [2]; DNOS, n=3): 65.9933% | Mean (dG1) (cultured lymphocytes [2]; POSSAD, n=3): 71.6584% | Mean (dG1) (cultured lymphocytes [2]; PREAD, n=13): 31.3039% | Mean dG1 by ApoE4 (cultured lymphocytes [2]; subjects with 0 ApoE4 alleles, n=28): 61.1186% | Mean dG1 by ApoE4 (cultured lymphocytes [2]; subjects with 1 ApoE4 allele, n=19): 63.0025% | Mean dG1 by ApoE4 (cultured lymphocytes [2]; subjects with 2 ApoE4 alleles, n=2): 49.6519%

From US8377640B2, “Diagnostic screens for Alzheimer's disease” (ISIS Innovation Ltd., priority 2001, dated 2013)
